For test [1], the system named is Streptococcus pneumoniae. Description: MIC agar dilution assay (Table 1). It counts as cell-based. (In agar dilution the substance is mixed into plates at graded concentrations.)
Test [2] concerns Staph. aureus Smith. Description: animal or person. The following applies: for ED50: Staphylococcus aureus, in Mus musculus, 168 h. The method, then: (§1) In this test, white mice (weight 20±2 g) of Charles River strain CDI received an intraperitoneal injection of a specific amount of a suspension of a bacterial cell culture. The amount is sufficient to cause death of untreated animals within 24-48 hrs. A half hour later, the test animals were administered either an oral or a subcutaneous dosing of the test compound in 0.5 ml of 0.2% starch solution. With streptococcal infections, the test animals received a second dose after 3 hrs. Each test group had 5 animals and each test was performed three times. The ED50 values were calculated on the basis of the survivors at 7 days. An estimate of the oral absorption of the test compounds was determined from the ratio of the ED50 values from the oral and subcutaneous dosings.

In test [3] the test system is Escherichia coli 314. Description: animal or person. Conditions: for ED50: Escherichia coli, 314, in Mus musculus, 168 h. The method, then:
as §1

Test [4] has as its system Strept. pneum. SVI. Briefly: animal or person. Conditions: for ED50: Mus musculus, 168 h. As to the method:
as §1

Test [5] relates to Staph. aureus SSC-80-32. Briefly: animal or person. Conditions: for ED50: Staphylococcus aureus, SSC8032, in Mus musculus, 168 h. The method, then:
as §1

Test [6] deals with Strept. pyogenes C 203. Briefly: animal or person. The following applies: for ED50: Streptococcus pyogenes, C203, in Mus musculus, 168 h. The method, then:
as §1

Test [7] concerns Klebsiella pneum. AD. Description: animal or person. Conditions: for ED50: Klebsiella, in Mus musculus, 168 h. As to the method: as §1
In test [8] the test system is Staphylococcus aureus MSSA. Description: MIC agar dilution assay (Table 1). It counts as cell-based. Conditions: for MIC50: read-out: MIC, 50% Inhibitious; for MIC90: read-out: MIC, 90% Inhibitious.
For test [9], the system named is Staphylococcus aureus MRSA. Description: MIC agar dilution assay (Table 1). The format is cell-based. The following applies: for MIC50: read-out: MIC, 50% Inhibitious; for MIC90: read-out: MIC, 90% Inhibitious.
The test system of test [10] is Streptococcus beta-hemolytic. Briefly: MIC agar dilution assay (Table 1). It counts as cell-based. The following applies: for MIC50: read-out: MIC, 50% Inhibitious; for MIC90: read-out: MIC, 90% Inhibitious.
Test [11] has as its system Streptococcus faecalis. Briefly: MIC agar dilution assay (Table 1). It counts as cell-based. Conditions: Enterococcus faecalis; for MIC50: read-out: MIC, 50% Inhibitious; for MIC90: read-out: MIC, 90% Inhibitious.
In test [12] the test system is Bacteroides fragilis. Briefly: MIC agar dilution assay, anaerobe bacteria (Table 1). It counts as cell-based.
Test [13] deals with Bacteroides app. The description is as above. It counts as cell-based. Conditions: for MIC50: read-out: MIC, 50% Inhibitious; for MIC90: read-out: MIC, 90% Inhibitious.
The subject of test [14] is MORG MORG. Description: MIC agar dilution assay (Table III). It counts as cell-based. Conditions: 18 h, read-out: MINIMAL INHIBITORY CONC. The method, then: (§2) TEST: 406 METHOD: AGAR DIL
(§3) MEDIUM: MUEL-HIN INOCULUM: 1.OE+04 - 5.OE+04
(§4) INCUBATION: 18 Hrs. 35 Celsius

Test [15] concerns SERRAT MARC. Description: MIC agar dilution assay (Table III). It counts as cell-based. Conditions: 18 h, read-out: MINIMAL INHIBITORY CONC. The method, then:
as §2, §3, §4

The subject of test [16] is STAPH AUR. Briefly: MIC agar dilution assay (Table III). The following applies: 18 h, 24 STAPH AUR CMC 83 131, 35 Celsius, read-out: MINIMAL INHIBITORY CONC. It counts as cell-based. As to the method: as §2, §3, §4
Test [17] has as its system CITRO DIV. Description: MIC agar dilution assay (Table III). It counts as cell-based. The following applies: 18 CITRO DIV K 82 24; 18 Hrs, 35 Celsius; read-out: MINIMAL INHIBITORY CONC. As to the method:
(§5) The results are summarized in Table III. |TEST: 406 METHOD: […] |MEDIUM: […] |INCUBATION: 18 Hrs. 35 Celsius | Aerobic: T

Test [18] has as its system PROV STUA. Briefly: MIC agar dilution assay (Table III). The following applies: 17 PROV STUA CMC 83 3; 18 Hrs, 35 Celsius; read-out: MINIMAL INHIBITORY CONC. It counts as cell-based. The method, then: as §5
Test [19] deals with PSEU AERUG. Briefly: MIC agar dilution assay (Table III). It counts as cell-based. Conditions: 18 h, read-out: MINIMAL INHIBITORY CONC. The method, then: as §5
The test system of test [20] is STREP FAEC. Description: MIC agar dilution assay (Table III). It counts as cell-based. The following applies: 18 h, read-out: MINIMAL INHIBITORY CONC. As to the method:
as §5

Test [21] has as its system ESCH COLI. Briefly: MIC agar dilution assay (Table III). It counts as cell-based. Conditions: 18 h, read-out: MINIMAL INHIBITORY CONC. The method, then:
as §5

[22] abbreviates: o/s, estimate of oral absorption, 10080 min.
Where [23] appears, read: read-out: MIC, 50% Inhibitious, 50%.
The mark [24] stands for this setting: read-out: MIC, 90% Inhibitious, 90%.

SMILES strings stand for the structures. ≈ marks a conversion by molar mass, not a printed value. Read-outs that look alike come from different tables or passages of the source.

What is called ED50 is the dose at which the effect has come halfway, by size or by number of responders. Read a low ED50 as greater potency.

As for `O=C(O)c1cn(C2CC2)c2cc(N3CCNCC3)c(F)cc2c1=O` [CF, Ciprofloxacin], the MIC50 in test [1] (read-out: MIC, 50% Inhibitious) was 1 µg/mL (≈ 3.02 µM); in test [8] (Staphylococcus aureus, MSSA), 0.5 µg/mL (≈ 1.51 µM); in test [9] (Staphylococcus aureus, MRSA), 1 µg/mL (≈ 3.02 µM); in [10] (Streptococcus), 0.5 µg/mL (≈ 1.51 µM); in test [11] it was 1 µg/mL (≈ 3.02 µM); in test [12] (read-out: MIC, 50% Inhibitious), 4 µg/mL (≈ 12.1 µM). Further, the MIC50 in test [13] (Bacteroides) was 16 µg/mL (≈ 48.3 µM). Also, the MIC90 amounted to 2 µg/mL (≈ 6.04 µM) in test [1] (read-out: MIC, 90% Inhibitious); 1 µg/mL (≈ 3.02 µM) in test [8] (Staphylococcus aureus, MSSA); 1 µg/mL (≈ 3.02 µM) in [9] (Staphylococcus aureus, MRSA); 1 µg/mL (≈ 3.02 µM) in [10] (Streptococcus); 2 µg/mL (≈ 6.04 µM) in test [11]; 4 µg/mL (≈ 12.1 µM) in test [12] (read-out: MIC, 90% Inhibitious). In addition, in [13] (Bacteroides), the MIC90 is 16 µg/mL (≈ 48.3 µM). For the same compound, the ED50 was 4.3 mg/kg in test [2] (po); 0.64 mg/kg in test [2] (sc); 0.52 mg/kg in [3] (po); 0.07 mg/kg in test [3] (sc); 47 mg/kg in test [4] (po); 15 mg/kg in test [4] (sc). In addition, the ED50 came to 5.9 mg/kg in test [5] (po); 0.71 mg/kg in test [5] (sc); 21 mg/kg in test [6] (po); 4 mg/kg in [6] (sc); 0.38 mg/kg in [7] (po); 0.07 mg/kg in test [7] (sc). Moreover, the “Ratio o/s of the ED50 values from oral and subcutaneous administration” value was 6.7 in test [2] (setting [22]); 7.4 in test [3] (setting [22]); 3.1 in test [4] (setting [22]); 8.3 in test [5] (setting [22]); 5.3 in [6] (setting [22]); 4.8 in test [7] (setting [22]).

With `CCn1cc(C(=O)O)c(=O)c2cc(F)c(N3CCNCC3)nc21` [EC, Enoxacin], the MIC50 was 16 µg/mL (≈ 49.9 µM) in [12] (setting [23]) and 16 µg/mL (≈ 49.9 µM) in [13] (Bacteroides app., 50%). Further, in test [12] (setting [24]), the MIC90 was determined as 16 µg/mL (≈ 49.9 µM).

For the compound `CN1CC2CC1CN2c1cc2c(cc1F)c(=O)c(C(=O)O)cn2-c1ccc(F)cc1` (stereo not shown) [Example 5, 6-Fluoro-1-(4-fluorophenyl)-1,4-dihydro-7(5-methyl-2,5-diazabicyclo(2.2.1)hept-2-yl)-4-oxoquinoline-3-carboxylic acid], the MIC50 is 1 µg/mL (≈ 2.43 µM) in test [1] (read-out: MIC, 50% Inhibitious); 0.25 µg/mL (≈ 0.608 µM) in [8] (Staphylococcus aureus, MSSA); 0.25 µg/mL (≈ 0.608 µM) in test [9] (Staphylococcus aureus, MRSA); 1 µg/mL (≈ 2.43 µM) in test [10] (Streptococcus); 4 µg/mL (≈ 9.72 µM) in test [11]; 4 µg/mL (≈ 9.72 µM) in test [12] (read-out: MIC, 50% Inhibitious). In test [13] (Bacteroides), the MIC50 amounted to 8 µg/mL (≈ 19.4 µM). Moreover, the MIC90 stood at 2 µg/mL (≈ 4.86 µM) in [1] (read-out: MIC, 90% Inhibitious); 0.5 µg/mL (≈ 1.22 µM) in [8] (Staphylococcus aureus, MSSA); 1 µg/mL (≈ 2.43 µM) in test [9] (Staphylococcus aureus, MRSA); 4 µg/mL (≈ 9.72 µM) in test [10] (Streptococcus); 8 µg/mL (≈ 19.4 µM) in test [11]; 4 µg/mL (≈ 9.72 µM) in test [12] (read-out: MIC, 90% Inhibitious). For the same compound, in test [13] (Bacteroides), the MIC90 was 8 µg/mL (≈ 19.4 µM).

`CCn1cc(C(=O)O)c(=O)c2cc(F)c(N3CCN(C)CC3)cc21` [PF, Pefloxacin, reference compound]: the MIC50 came to 4 µg/mL (≈ 12 µM) in test [1] (setting [23]); 0.5 µg/mL (≈ 1.5 µM) in test [8] (Staphylococcus aureus MSSA, 50%); 0.5 µg/mL (≈ 1.5 µM) in test [9] (Staphylococcus aureus MRSA, 50%); 4 µg/mL (≈ 12 µM) in test [10] (Streptococcus beta-hemolytic, 50%); 4 µg/mL (≈ 12 µM) in [11] (Streptococcus faecalis, 50%). The MIC90 in [1] (setting [24]) is 8 µg/mL (≈ 24 µM); in test [8] (Staphylococcus aureus MSSA, 90%), 1 µg/mL (≈ 3 µM); in test [9] (Staphylococcus aureus MRSA, 90%), 1 µg/mL (≈ 3 µM); in test [10] (Streptococcus beta-hemolytic, 90%), 8 µg/mL (≈ 24 µM); in [11] (Streptococcus faecalis, 90%) it was 8 µg/mL (≈ 24 µM). The 50% effective dose (ED50) in test [2] (po) came to 3.8 mg/kg; in [2] (sc) it was 1.4 mg/kg; in test [3] (po), 0.84 mg/kg; in test [3] (sc), 0.48 mg/kg; in test [7] (po) it was 0.8 mg/kg; in [7] (sc), 0.71 mg/kg. Besides, the MIC in [14] (14 MORG MORG CMC 84 38, 35 Celsius) was 0.03 µg/mL (≈ 0.09 µM); in test [14] (15 MORG MORG MOR 84 45, 35 Celsius) it was 0.03 µg/mL (≈ 0.09 µM); in test [15] (10 SERRAT MARC MOR 84 41, 35 Celsius), 0.06 µg/mL (≈ 0.18 µM); in test [15] (11 SERRAT MARC CMC 83 74, 35 Celsius), 4 µg/mL (≈ 12 µM); in test [16] it was 2 µg/mL (≈ 6 µM); in test [17] it was 0.03 µg/mL (≈ 0.09 µM). The MIC in test [18] stood at 4 µg/mL (≈ 12 µM); in test [19] (19 PSEU AERUG K 84 16, 35 Celsius), 4 µg/mL (≈ 12 µM); in test [19] (20 PSEU AERUG VGH 84 3, 35 Celsius), 8 µg/mL (≈ 24 µM); in test [19] (21 PSEU AERUG CMC 83 20, 35 Celsius), 2 µg/mL (≈ 6 µM); in test [20] (25 STREP FAEC UCI 85 30, 35 Celsius) it was 4 µg/mL (≈ 12 µM); in test [20] (26 STREP FAEC VGH 84 69, 35 Celsius), 2 µg/mL (≈ 6 µM). Moreover, the MIC in [20] (27 STREP FAEC CMC 83 120, 35 Celsius) came out at 4 µg/mL (≈ 12 µM); in test [21] (1 ESCH COLI MOR 84 20, 35 Celsius), 0.06 µg/mL (≈ 0.18 µM); in [21] (2 ESCH COLI VGH 84 19, 35 Celsius) it was 0.06 µg/mL (≈ 0.18 µM); in test [21] (3 ESCH COLI CMC 84 50, 35 Celsius), 0.06 µg/mL (≈ 0.18 µM); in test [21] (28 ESCH COLI ATCC 25922, 35 Celsius), 0.03 µg/mL (≈ 0.09 µM).

These data come from US5045549A, “Substituted 4-pyridone 3-carboxylic acid derivatives, method for their production and their pharmaceutical compositions” (priority 1986, dated 1991).
